Data published in US20060100245A1, “Substituted biphenyl-4-carboxylic acid arylamide analogues” (Neurogen Corporation, priority 2002, published 2006).

Molecular target: T1, human capsaicin receptor (VR1) (Homo sapiens, UniProt Q8NER1)
T1 construct: transfected with the pBK-CMV expression construct encoding the full length human capsaicin receptor; expressed in transfected cells
Test: Capsaicin receptor binding assay ([3H]RTX competition)
Settings: read-out: Ki
From the text: This Example illustrates the preparation of VR1-transfected cells and membrane preparations for use in binding assays (Example 5) and functional assays (Example 6).
A cDNA encoding full length human capsaicin receptor (SEQ ID NO: 1, 2 or 3 of U.S. Pat. No. 6,482,611) was subcloned in the plasmid pBK-CMV (Stratagene, La Jolla, Calif.) for recombinant expression in mammalian cells.
Human embryonic kidney (HEK293) cells were transfected with the pBK-CMV expression construct encoding the full length human capsaicin receptor using standard methods. The transfected cells were selected for two weeks in media containing G418 ([…]) to obtain a pool of stably transfected cells. Independent clones were isolated from this pool by limiting dilution to obtain clonal stable cell lines for use in subsequent experiments.
For radioligand binding experiments, cells were seeded in T175 cell culture flasks in media without antibiotics and grown to approximately 90% confluency. The flasks were then washed with PBS and harvested in PBS containing 5 mM EDTA. The cells were pelleted by gentle centrifugation and stored at −80° C. until assayed.
Previously frozen cells were disrupted with the aid of a tissue homogenizer in ice-cold HEPES homogenization buffer (5mM KCl 5, 5.8 mM NaCl, 0.75 mM CaCl2, 2 mM MgCl2, 320 mM sucrose, and 10 mM HEPES pH 7.4). Tissue homogenates were first centrifuged for 10 minutes at 1000×g (4° C.) to remove the nuclear fraction and debris, and then the supernatant from the first centrifugation is further centrifuged for 30 minutes at 35,000×g (4° C.) to obtain a partially purified membrane fraction. Membranes were resuspended in the HEPES homogenization buffer prior to the assay. An aliquot of this membrane homogenate is used to determine protein concentration via the Bradford method (BIO-RAD Protein Assay Kit, #500-0001, BIO-RAD, Hercules, Calif.).
This Example illustrates a representative assay of capsaicin receptor binding that may be used to determine the binding affinity of compounds for the capsaicin (VR1) receptor.
Binding studies with [^3H] Resiniferatoxin (RTX) are carried out essentially as described by Szallasi and Blumberg (1992) J. Pharmacol. Exp. Ter. 262: 883-888. In this protocol, non-specific RTX binding is reduced by adding bovine alpha, acid glycoprotein (100 μg per tube) after the binding reaction has been terminated.
[^3H] RTX (37 Ci/mmol) is synthesized by and obtained from the Chemical Synthesis and Analysis Laboratory, National Cancer Institute-Frederick Cancer Research and Development Center, Frederick, Md. [^3H] RTX may also be obtained from commercial vendors (e.g., Amersham Pharmacia Biotech, Inc.; Piscataway, N.J.).
The membrane homogenate of Example 4 is centrifuged as before and resuspended to a protein concentration of 333 μg/ml in homogenization buffer. Binding assay mixtures are set up on ice and contain [^3H]JRTX (specific activity 2200 mCi/ml), 2 μl non-radioactive test compound, 0.25 mg/ml bovine serum albumin (Cohn fraction V), and 5×10^4−1×10^5 VR1-transfected cells. The final volume is adjusted to 500 μl (for competition binding assays) or 1,000 μl (for saturation binding assays) with the ice-cold HEPES homogenization buffer solution (pH 7.4) described above. Non-specific binding is defined as that occurring in the presence of 1 μM non-radioactive RTX (Alexis Corp.; San Diego, Calif.). For saturation binding, [^3H]RTX is added in the concentration range of […], using 1 to 2 dilutions. Typically 11 concentration points are collected per saturation binding curve.
Competition binding assays are performed in the presence of 60 pM [^3H]RTX and various concentrations of test compound. The binding reactions are initiated by transferring the assay mixtures into a 37° C. water bath and are terminated following a 60 minute incubation period by cooling the tubes on ice.

T1 sequence (Q8NER1 whole entry): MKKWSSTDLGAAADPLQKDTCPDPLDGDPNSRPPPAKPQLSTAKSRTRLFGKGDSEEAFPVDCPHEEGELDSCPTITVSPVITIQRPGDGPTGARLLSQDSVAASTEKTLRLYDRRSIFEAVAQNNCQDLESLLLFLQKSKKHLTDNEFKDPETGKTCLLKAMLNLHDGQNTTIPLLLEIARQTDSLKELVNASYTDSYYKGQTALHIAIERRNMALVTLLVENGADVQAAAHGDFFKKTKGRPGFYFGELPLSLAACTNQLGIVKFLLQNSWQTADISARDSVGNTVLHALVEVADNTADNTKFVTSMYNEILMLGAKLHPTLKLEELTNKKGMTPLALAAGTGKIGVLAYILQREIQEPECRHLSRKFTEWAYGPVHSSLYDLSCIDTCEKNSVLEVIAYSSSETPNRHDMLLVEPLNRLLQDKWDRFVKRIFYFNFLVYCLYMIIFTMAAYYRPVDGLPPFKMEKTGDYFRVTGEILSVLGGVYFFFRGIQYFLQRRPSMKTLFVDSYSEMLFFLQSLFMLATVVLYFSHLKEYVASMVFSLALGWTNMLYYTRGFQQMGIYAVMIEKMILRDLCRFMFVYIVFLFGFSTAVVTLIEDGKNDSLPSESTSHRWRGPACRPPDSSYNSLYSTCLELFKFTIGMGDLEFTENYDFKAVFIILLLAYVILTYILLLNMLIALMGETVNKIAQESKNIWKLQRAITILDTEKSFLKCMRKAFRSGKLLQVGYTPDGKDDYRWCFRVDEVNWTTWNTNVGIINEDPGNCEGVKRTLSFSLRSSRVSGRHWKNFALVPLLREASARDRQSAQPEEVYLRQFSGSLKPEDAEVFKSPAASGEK

SMILES	Ki [nM]
O=C(Nc1cnc2ccccc2c1)c1ccc(-c2ccccc2Cl)nc1 [Compound 82, 6-(2-Chloro-phenyl)-N-quinolin-3-yl-nicotinamide]	< 1000
O=C(Nc1ccc2c(c1)OCCCO2)c1ccc(-c2cccc(F)c2)nc1 [Compound 220, N-(3,4-Dihydro-2H-benzo[b][1,4]dioxepin-7-yl)-6-(3-fluoro-phenyl)-nicotinamide]	< 1000
COc1cccc(-c2ccc(C(=O)Nc3ccc(C(C)(C)C)cc3)cn2)c1 [Compound 449, N-(4-tert-Butyl-phenyl)-6-(3-methoxy-phenyl)-nicotinamide]	< 1000
CN1CCCCC1c1ccc(C(=O)Nc2ccc(C(C)(C)C)cc2)cc1 (centres unmarked) [Compound 398, N-(4-tert-Butyl-phenyl)-4-(1-methyl-piperidin-2-yl)-benzamide]	< 1000
CCCN1CCCCC1c1ccc(C(=O)Nc2ccc(C(C)(C)C)cc2)cc1 (centres unmarked) [Compound 399, N-(4-tert-Butyl-phenyl)-4-(1-propyl-piperidin-2-yl)-benzamide]	< 1000
CC(C)(C)c1ccc(NC(=O)c2ccc(-c3ncccc3[N+](=O)[O-])cc2)cc1 [Compound 415, N-(4-tert-Butyl-phenyl)-4-(3-nitro-pyridin-2-yl)-benzamide]	< 1000
CC(C)c1ccc(NC(=O)c2ccc(-c3ncccc3F)cc2)cc1 [Compound 34, 4-(3-Fluoro-pyridin-2-yl)-N-(4-isopropyl-phenyl)-benzamide]	< 1000
O=C(Nc1ccc(C(F)(F)F)cc1)c1ccc(-c2ncccc2F)cc1 [Compound 35, 4-(3-Fluoro-pyridin-2-yl)-N-(4-trifluoromethyl-phenyl)-benzamide]	< 1000
CC(C)(C)c1ccc(NC(=O)c2ccc(-c3ccccc3N)nc2)cc1 [Compound 61, 6-(2-Amino-phenyl)-N-(4-tert-butyl-phenyl)-nicotinamide]	< 1000
CCCCc1ccc(NC(=O)c2ccc(-c3ncccc3Cl)cc2)cc1 [Compound 332, N-(4-Butyl-phenyl)-4-(3-chloro-pyridin-2-yl)-benzamide]	< 1000
CCC(C)c1ccc(NC(=O)c2cnc(-c3ccccc3Cl)cn2)cc1 (centres unmarked) [Compound 38, 5-(2-Chloro-phenyl)-pyrazine-2-carboxylic acid (4-sec-butyl-phenyl)-amide]	< 1000
Cc1cccc(-c2ccc(C(=O)Nc3ccc(C)c(C)c3)cn2)c1 [Compound 247, N-(3,4-Dimethyl-phenyl)-6-m-tolyl-nicotinamide]	< 1000
COc1cccc(NC(=O)c2ccc(-c3cccc(C)c3)nc2)c1 [Compound 280, N-(3-Methoxy-phenyl)-6-m-tolyl-nicotinamide]	< 1000
Cc1cc(NC(=O)c2ccc(-c3ncccc3F)cc2)ccc1C(C)C [Compound 33, 4-(3-Fluoro-pyridin-2-yl)-N-(4-isopropyl-3-methyl-phenyl)-benzamide]	< 1000
CC(C)(C)c1ccc(NC(=O)c2ccc(-c3ncccc3C(F)(F)F)cc2[N+](=O)[O-])cc1 [Compound 395, N-(4-tert-Butyl-phenyl)-2-nitro-4-(3-trifluoromethyl-pyridin-2-yl)-benzamide]	< 1000
CC(C)(C)c1cccc(NC(=O)c2ccc(-c3ccccc3F)nc2)c1 [Compound 288, N-(3-tert-Butyl-phenyl)-6-(2-fluoro-phenyl)-nicotinamide]	< 1000
CC(C)(C)c1ccc(NC(=O)c2ccc(C3CCCCN3)cc2)cc1 (centres unmarked) [Compound 429, N-(4-tert-Butyl-phenyl)-4-piperidin-2-yl-benzamide]	< 1000
Cc1nc2cc(NC(=O)c3ccc(-c4ccccc4F)nc3)ccc2s1 [Compound 85, 6-(2-Fluoro-phenyl)-N-(2-methyl-benzothiazol-5-yl)-nicotinamide]	< 1000

SMILES	Ki [nM]
CC(C)(C)c1ccc(NC(=O)c2ccc(-c3ncccc3C(F)(F)F)cc2N)cc1 [Compound 12, 2-Amino-N-(4-tert-butyl-phenyl)-4-(3-trifluoromethyl-pyridin-2-yl)-benzamide]	< 1000
O=C(Nc1ccc(C(F)(F)F)nc1)c1ccc(-c2ncccc2C(F)(F)F)cc1[N+](=O)[O-] [Compound 20, 2-Nitro-N-(6-trifluoromethyl-pyridin-3-yl)-4-(3-trifluoromethyl-pyridin-2-yl)-benzamide]	< 1000
Nc1cc(-c2ncccc2C(F)(F)F)ccc1C(=O)Nc1ccc(C(F)(F)F)cc1 [Compound 13, 2-Amino-N-(4-trifluoromethyl-phenyl)-4-(3-trifluoromethyl-pyridin-2-yl)-benzamide]	< 1000
CCCOc1cccnc1-c1ccc(C(=O)Nc2ccc(C(C)(C)C)cc2)cc1 [Compound 418, N-(4-tert-Butyl-phenyl)-4-(3-propoxy-pyridin-2-yl)-benzamide]	< 1000
CC(C)c1cccc(-c2ccc(C(=O)Nc3ccc4c(c3)OCCCO4)cn2)c1 [Compound 221, N-(3,4-Dihydro-2H-benzo[b][1,4]dioxepin-7-yl)-6-(3-isopropyl-phenyl)-nicotinamide]	< 1000
CC(C)(C)c1ccc(NC(=O)c2ccc(-c3ncc(C(F)(F)F)cc3Cl)cc2)cc1 [Compound 402, N-(4-tert-Butyl-phenyl)-4-(3-chloro-5-trifluoromethyl-pyridin-2-yl)-benzamide]	< 1000
CC(C)(C)c1ccc(NC(=O)c2ccc(-c3ccc(O)cc3)nc2)cc1 [Compound 450, N-(4-tert-Butyl-phenyl)-6-(4-hydroxy-phenyl)-nicotinamide]	< 1000
CCCc1ccc(NC(=O)c2ccc(-c3cc(Cl)ccc3OC)nc2)cc1 [Compound 157, 6-(5-Chloro-2-methoxy-phenyl)-N-(4-propyl-phenyl)-nicotinamide]	< 1000
CS(=O)(=O)N(c1cccnc1-c1ccc(C(=O)Nc2ccc(C(F)(F)F)cn2)cc1)S(C)(=O)=O [Compound 457, N-(5-Trifluoromethyl-pyridin-2-yl)-4-[3-(N,N-dimethanesulfonyl)amino-pyndin-2-yl]-benzamide]	< 1000
CC(C)c1ccc(NC(=O)c2ccc(-c3cccc(F)c3)nc2)cc1 [Compound 127, 6-(3-Fluoro-phenyl)-N-(4-isopropyl-phenyl)-nicotinamide]	< 1000
Cc1ccc(S(=O)(=O)Nc2cccnc2-c2ccc(C(=O)Nc3ccc(C(C)(C)C)cc3)cc2)cc1 [Compound 428, N-(4-tert-Butyl-phenyl)-4-[3-(toluene-4-sulfonylamino)-pyridin-2-yl]-benzamide]	< 1000
CC(C)(C)c1ccc(NC(=O)c2ccc(-c3ncccc3NS(=O)(=O)Cc3ccccc3)cc2)cc1 [Compound 417, N-(4-tert-Butyl-phenyl)-4-(3-phenylinethanesulfonylamino-pyridin-2-yl)-benzamide]	< 1000
O=C(Nc1ccc2c(c1)CCC2)c1ccc(-c2cccc(F)c2)nc1 [Compound 129, 6-(3-Fluoro-phenyl)-N-indan-5-yl-nicotinamide]	< 1000
Cc1cccc(-c2ccc(C(=O)Nc3ccc4sc(C)nc4c3)cn2)c1 [Compound 208, N-(2-Methyl-benzothiazol-5-yl)-6-m-tolyl-nicotinamide]	< 1000
COc1cccc(NC(=O)c2ccc(-c3ccc(C(C)C)cc3)nc2)c1 [Compound 147, 6-(4-Isopropyl-phenyl)-N-(3-methoxy-phenyl)-nicotinamide]	< 1000
CC(C)(C)c1ccc(NC(=O)c2ccc(-c3ccccc3C(F)(F)F)nc2)cc1 [Compound 447, N-(4-tert-Butyl-phenyl)-6-(2-trifluoromethyl-phenyl)-nicotinamide]	< 1000
Cc1nc2cc(NC(=O)c3ccc(-c4ccccc4)nc3)ccc2s1 [Compound 209, N-(2-Methyl-benzothiazol-5-yl)-6-phenyl-nicotinamide]	< 1000
